Columns and labels:
[1] = Solubility of testosterone in various buffers; format: physicochemical; details: phosphate buffer pH 6.80, 72 h at RT
Description: The solubility of testosterone in different media was tested. An amount of testosterone (100 mg) was added to each of four glass vials containing 10 ml of either: a) HCl buffer (pH 1.20), b) Acetate buffer (pH 4.50), c) phosphate buffer solution (PBS) pH 6.80 and d) nano pure water. These samples were subjected for shaking in a water bath for 72 h at RT. The samples were suitably diluted and analyzed by the HPLC assay method described in Comparative Example 2. Solubility of testosterone was high in phosphate buffer pH 6.80.

[2] = Solubility in SLS after sonication; format: physicochemical; details: 1% w/v SLS, sonication 10 min
Description: Solubility of: a) 10 mg pure testosterone; and b) formulation PLF-2 equivalent to 10 mg testosterone in either 0.5%, 1%, or 2% SLS following sonication for 10 min. was determined. For these studies, 10 mg of pure testosterone was weighed and dissolved in either 100 ml of 0.5%, 1%, or 2% (w/v) SLS, respectively, in volumetric flasks. An amount of formulation PLF-2 that contained 10 mg of testosterone was weighed, and sample solutions were prepared in a similar way as that described above for the testosterone control. These solutions were subjected for sonication for 10 min in a bath sonicator. The samples were then filtered and diluted suitably in their respective concentrations of SLS. The amounts of soluble testosterone for each concentration of SLS was determined by using the HPLC assay method described in Comparative Example 2.

For C[C@]12CC[C@H]3[C@@H](CCC4=CC(=O)CC[C@@]43C)[C@@H]1CC[C@@H]2O [testosterone], the Solubility of testosterone [1] was “high” and the testosterone solubility [2] was “high testosterone solubility”.

Source: US8957053B2, “Proliposomal testosterone formulations” (Tesorx Pharma, LLC, priority 2012, dated 2015)
